{
  "source": "ChEMBL document CHEMBL5223153",
  "about": "“Elucidation of protective effects of oxime derivatives against cisplatin-induced cytotoxicity in LLC-PK1 kidney cells” (2023)",
  "key": {"[1]": {"tested_on": "LLC-PK1", "assay": "Nephroprotective activity against cisplatin induced cytotoxicity in pig LLC-PK1 cells assessed as decrease in phosphorylated JNK level at 125 uM incubated for 24 hrs by Western blot analysis", "assay_type": "functional, cell-based", "details": "Sus scrofa"}, "[2]": {"tested_on": "LLC-PK1", "assay": "Nephroprotective activity against cisplatin induced cytotoxicity in pig LLC-PK1 cells assessed as increase in cell viability at 250 uM incubated for 24 hrs by MTT assay", "assay_type": "functional, Sus scrofa"}, "[3]": {"tested_on": "LLC-PK1", "assay": "Nephroprotective activity against cisplatin induced cytotoxicity in pig LLC-PK1 cells assessed as decrease in cleaved caspase-3 level at 125 uM incubated for 24 hrs by Western blot analysis", "assay_type": "functional, cell-based", "details": "Sus scrofa"}, "[4]": {"tested_on": "LLC-PK1", "assay": "Nephroprotective activity against cisplatin induced apoptosis in pig LLC-PK1 cells assessed as decrease in ratio of apoptotic cells at 125 uM incubated for 24 hrs by annexin V staining based image cytometric analysis", "assay_type": "functional, cell-based", "details": "Sus scrofa"}, "[5]": {"tested_on": "LLC-PK1", "assay": "Nephroprotective activity against cisplatin induced cytotoxicity in pig LLC-PK1 cells assessed as increase in cell viability at 125 uM incubated for 24 hrs by MTT assay", "assay_type": "functional, Sus scrofa"}, "[6]": {"tested_on": "LLC-PK1", "assay": "Nephroprotective activity against cisplatin induced cytotoxicity in pig LLC-PK1 cells assessed as decrease in phosphorylated ERK level at 125 uM incubated for 24 hrs by Western blot analysis", "assay_type": "functional, cell-based", "details": "Sus scrofa"}, "[7]": {"tested_on": "LLC-PK1", "assay": "Nephroprotective activity against cisplatin induced cytotoxicity in pig LLC-PK1 cells assessed as increase in cell viability at 50 uM incubated for 24 hrs by MTT assay", "assay_type": "functional, Sus scrofa"}, "[8]": {"tested_on": "LLC-PK1", "assay": "Nephroprotective activity against cisplatin induced cytotoxicity in pig LLC-PK1 cells assessed as increase in cell viability at 25 uM incubated for 24 hrs by MTT assay", "assay_type": "functional, Sus scrofa"}},
  "note": "The source made the active and inactive calls. The rule behind the calls is not given here.",
  "data": [
    {"smiles": "COc1cc(Br)c(/C=C/C(=N/O)c2ccc(Cl)cc2)cc1OC", "values": [
      {"measurement": "Activity", "setting": "[1]", "value": "Active"},
      {"measurement": "Activity", "setting": "[2]", "value": 94.51, "unit": "%"},
      {"measurement": "Activity", "setting": "[3]", "value": "Active"},
      {"measurement": "Activity", "setting": "[4]", "value": "Active"},
      {"measurement": "Activity", "setting": "[5]", "value": 84.41, "unit": "%"},
      {"measurement": "Activity", "setting": "[6]", "value": "Active"},
      {"measurement": "Activity", "setting": "[7]", "value": 82.22, "unit": "%"}
    ]},
    {"smiles": "COc1cc(Br)c(/C=C/C(=N/O)c2ccc(Br)cc2)cc1OC", "values": [
      {"measurement": "Activity", "setting": "[1]", "value": "Active"},
      {"measurement": "Activity", "setting": "[2]", "value": 94.78, "unit": "%"},
      {"measurement": "Activity", "setting": "[3]", "value": "Active"},
      {"measurement": "Activity", "setting": "[4]", "value": "Active"},
      {"measurement": "Activity", "setting": "[5]", "value": 83.79, "unit": "%"},
      {"measurement": "Activity", "setting": "[6]", "value": "Active"},
      {"measurement": "Activity", "setting": "[8]", "value": 66.83, "unit": "%"},
      {"measurement": "Activity", "setting": "[7]", "value": 83.86, "unit": "%"}
    ]}
  ]
}
